Measurements: patent US7285618B1, “Polypeptides having neutrophil stimulating activity” (Japan Tobacco Inc., priority 2000, dated 2007)
Like-named read-outs stand apart in the source and are kept apart here. Where no end group is shown, it is not given here.

Columns and labels:
human neutrophils = assay: β-HA secretion from human neutrophils; assay type: cell-based; conditions: for β-HA secretion from neutrophil cells (%/total): human neutrophils; for secretion of β-HA from human neutrophils: stimulation with 10 μM
Procedure: b. Preparation of Human Leukocytes
Thirty milliliters of human peripheral blood (containing 500 units of heparin sodium) was plated on 5 ml of Lymphocepal I in each of 4 centrifugal tubes and spun down (400 g, 30 min) at room temperature. After spinning, the monocytes and lymphocytes forming a turbid layer at the interface between the plasma and Lymphocepal I were carefully taken to be removed. […] The Percoll layer containing neutrophils was carefully taken and washed with physiological saline. Then, it was replaced by a 0.2% NaCl solution and about 30 seconds later, an equal amount of 1.6% NaCl aqueous solution was added; this procedure was repeated twice, whereby the left erythrocytes were lysed and neutrophils were isolated.
The purities of these monocyte-lymphocyte mixed cells and neutrophils were assayed by analysis with a flow cytometer. Propidium iodide was added to the cell suspension at a final concentration of 100 ng/ml in order to stain dead cells. Using a flow cytometer, forward scatter intensity and side scatter intensity were measured on a linear scale only for the negative cells (living cells) in the cell suspension for the propidium iodide-staining. The results were processed by CellQuest software and represented as a dot plot of forward scatter intensity (X-axis) and side scatter intensity (Y-axis). The purify of monocycle-lymphocyte mixed cells were 84% and that of the neutrophils were 83%. […]
c. Stimulation of the Cell […]
d. Measuring β-HA Enzyme Activity
The amount of β-HA secreted into the reaction supernatant was determined by measuring the absorbance at 415 nm of p-nitrophenol that was generated by an enzymatic reaction involving p-nitrophenyl N-acetyl-β-D-glucosaminide as a substrate. To be specific, 90 μl of the reaction supernatant was transferred to a 96-well Immuno plate (Nunc) and 60 μl of a substrate solution (10 mM p-nitrophenyl N-acetyl-β-D-glucosaminide/40 mM citrate, 70 mM Na2HPO4, pH 4.5) was added to initiate an enzymatic reaction. Following a 1-hr reaction at 37° C., 100 μl of a reaction quencher (400 mM glycine, pH 10.7) was added to stop the reaction and the absorbance at 415 nm was measured. As a control, cells were treated with Triton X-100 at a final concentration of 0.05% and the amount of β-HA in the supernatant was measured. As another control, the amount of β-HA secreted from cells upon stimulation with fMLP at a final concentration of 10 μM was measured.

[1] = tested on: differentiated HL60 cells; assay: Migration promoting activity (Chemotaxis Cells), differentiated HL60 cells; assay type: cell-based, human
Procedure: The migration promoting activity of each of the polypeptides of interest was measured using Chemotaxis Cells (Kurabo) as follows: The differentiated HL60 cells or undifferentiated HL60 cells were washed three times with ice-cooled HBHS and a cell suspension was prepared at a cell density of 4×10^6 cells/ml. The cell suspension was incubated at 37° C. for 10 minutes; thereafter, 500 μl of the cell suspension was transferred to Chemotaxis Cells (2×10^6 cells/Cell), which were put on a micro-well plate filled with pre-heated (37° C.) HBHS containing 1 ml of polypeptide and incubation was performed at 37° C. for 1 hour. Then, the Chemotaxis Cells were removed from the plate and the number of cells that had migrated in each well was counted.
Migration promoting activity was expressed by a chemotaxis index, or the number of cells that migrated upon stimulation was divided by the number of cells migrated without stimuli.
The activity of the human homologues of COSP-1 and fCyt b (1-15) for promoting β-HA secretion and migration promoting activities were measured following the methods described in Examples 4 and 5, respectively. The activity for β-HA secretion was expressed by the percentage for the maximum amount of secretion upon stimulation with 10 μM of fMLP, whereas the activity for migration was expressed by a chemotaxis index, i.e., the ratio of the number of stimulated migrating cells to that of unstimulated migrating cells.

HL60 cells [2] = assay type: cell-based, human
Procedure: Cells were cultivated following the method as described in Example 4, except that the RPMI-1640 medium containing contained 15% of FCS, and that in order to differentiate the HL60 cells into neutrophil-like cells, a cell suspension was prepared such that the cell density in the flask would be 0.5×10^6 cells/ml at the time of addition of db-cAMP (final concentration, 0.5 mM). The β-HA secretion promoting activities of COSP-1 and fMLP were measured 24, 48 and 72 hours after the differentiation.

[3] = tested on: undifferentiated HL60 cells; assay: Intracellular Ca2+ concentration (fura-2), undifferentiated HL60 cells; assay type: cell-based, human
Procedure: The differentiated HL60 cells or undifferentiated HL60 cells were washed twice with a Hepes-Na solution (140 mM NaCl, 4 mM KCl, 1 mM NaH2PO4, 1 mM MgCl2, 1.25 mM CaCl2, 5 mM Hepes, 11 mM glucose, 0.2% BSA, pH 7.4). Then, Ca^2+ sensitive fluorescence reagent, fura-2/AM, was added to the cell suspension (4 ml: final concentration, 4 μM). The reaction mixture was then shaken gently at room temperature for 60 minutes, shielded from light in order to incorporate fura-2 into the HL60 cells. Subsequently, the cells were washed twice with a Hepes-Na solution and a cell suspension was prepared at a final cell density of 1.0×10^6 cells/ml. One milliliter of the cell suspension was put into reaction cuvettes and stimulated with various samples under stirring at 30° C. Ratios of fluorescence intensity at 500 nm (F) for an excitation wavelength at 340 nm to that at 380 nm were measured with a fluorimeter (CAF-100, Japan Spectroscopic Co., Ltd.) and [Ca^2+]i was calculated following the formula: [Ca^2+]i(nM)=K×{(F−Fmin)/(Fmax−F)}×A/B, wherein
Fmax: a ratio of fluorescence intensity at 500 nm for an excitation wavelength at 340 nm to that at 380 nm after all cells were solubilized with 0.1% Triton X-100;
Fmin: a ratio of fluorescence intensity at 500-nm for an excitation wavelength at 340 nm to that at 380 nm after the whole calcium was chelated with 4 mM EGTA;
A: fluorescence intensity at 500-nm for an excitation wavelength at 380 nm, when all the calcium was chelated with EGTA;
B: fluorescence intensity at 500-nm for an excitation wavelength at 380 nm, when all cells were solubilized with Triton X-100;
K: 224 (nM) (the dissociation constant of fura-2).

HL60 cells [4] = assay type: cell-based, human; remark: listed apart in the source

| Molecule | β-HA secretion from neutrophil cells (%/total) (human neutrophils) | secretion of β-HA from human neutrophils (human neutrophils) [%] | activity for migration at the concentrations where β-HA secretion was observed ([1]; Example 12) | concentrations of migration activity relative to the concentration for β-HA secretion ([1]; Example 12) | EC50 (HL60 cells [2]; 24 h) [nM] | EC50 (HL60 cells [2]; 48 h) [nM] | EC50 (HL60 cells [2]; 72 h) [nM] | Max. (%/total), maximum secretion on average (HL60 cells [2]; Differentiation 24 hr) [%/total] | Max. (%/total), maximum secretion on average (HL60 cells [2]; Differentiation 48 hr) [%/total] | Max. (%/total), maximum secretion on average (HL60 cells [2]; Differentiation 72 hr) [%/total] | intracellular Ca2+ concentration [3] | β-HA secretion to the undifferentiated HL60 cells (HL60 cells [4]) | migration promoting (attracting) activity [1] |
| --- | --- | --- | --- | --- | --- | --- | --- | --- | --- | --- | --- | --- | --- |
| CSCC[C@H](NC=O)C(=O)N[C@@H](CC(C)C)C(=O)N[C@@H](Cc1ccccc1)C(=O)O [fMLP, formyl methionyl-leucyl-phenylalanine, reference compound] | 68.3 | 68.3 | also observed | observed at concentrations lower | 110 | 22 | 9.3 | 17.4 | 40.6 | 48.4 | did not increase | Neither COSP-1 nor fMLP caused the β-HA secretion | – |
| LSFLIPAGWVLSHLDHYKRSSAA-OH [COSP-1] | 40.5 | 40.5 | – | – | 1200 | 450 | 270 | 15.6 | 35.7 | 45.3 | did not increase | Neither COSP-1 nor fMLP caused the β-HA secretion | attracting activity |
